Measurements as given in patent publication US20160296722A1, “METHOD OF TREATING DEPRESSION” (Korea Bio Medical Science Institute, priority 2015, published 2016).

What was measured:
ICR mice = assay: Forced swimming test (FST), immobility time; format: in vivo; conditions: male ICR mice, mean±SEM
Description: Male ICR mice (3 weeks old) weighing 10-12 g were purchased from the Dae-Han Experimental Animal Center (Daejeon, Republic of Korea), and subsequently maintained at the College of Korean Medicine, Kyung Hee University. Animals were housed 5-10% in as laminar air-flow room maintained at a temperature of 22±1° C. and a relative humidity of 55±10% under a 12:12 L/D cycle light (on at 7:00 h) throughout the study. Food and water were provided ad libitum. All manipulations were carried out between 9:00 and 16:00 h and no animal was used more than once.
Mice were exposed to JDS music daily for 3 weeks. All experiments were carried out in a quite environment other sounds.
After measuring immobility times, 10 mice were allocated to each of the five study groups in an immobility time-matched manner. […] The FST was performed as the end of the 3 weeks administration period. During the 6 min FST, immobility times were measured as described by Porsolt et al. (1977). The FST apparatus consisted of two Plexiglas cylinders (height: 25 cm, diameter: 10 cm) placed side by side in a Makrolon cage filled with water at 23-25° C. […] Total duration of immobility, during the 4 min period from 2 to 6 min was recorded. […]

BDNF = BDNF expression in brain, Western blot; format: in vivo, mice; conditions: mouse brain after FST, 10 mg/kg orally once daily for 3 weeks, versus untreated control group
Description: (§1) Immediately after the FST, mice were sacrificed, brains were rapidly removed, and frozen in liquid nitrogen. Samples were dissected and homogenized in ice-cold buffer supplemented with 0.2 mM DTT, 0.5 mM sodium vanadate, and protease inhibitors. NaCl was then added to a final concentration of 0.45 M, and homogenates were centrifuged at 15,000×g for 30 min. Supernatants were collected and stored at −70° C. Samples were subjected to Western blot analysis for ERK, phosphorylated-ERK (PERK), BDNF, and GAPDH. Supernatant samples obtained as described above were heated at 95° C. for 5min and briefly cooled on ice. After centrifugation, 50 μg aliquots were resolved by 12% SDS-polyacrylamide gel electrophoresis. Proteins were then transferred to nitrocellulose membranes, which were blocked for 2 h with phosphate-buffered saline (PBS) containing Tween-20 (PBST) containing 6% bovine serum albumin. Membranes were incubated overnight at 4° C. with primary antibodies diluted 1:500 with PBST, and washed nine times for 10 min with PBST. For protein detection, blots were incubated with secondary antibodies conjugated peroxidase (1:5000) for 2 h. Finally, protein bands were visualized using an enhanced chemiluminescence kit (GE Healthcare, Piscataway, N.J., USA) according to the manufacturer's instructions.

DA = DA level in brain after FST (DA ELISA kit); format: in vivo, mice; conditions: mouse brain after FST, 10 mg/kg orally once daily for 3 weeks, versus untreated control group, p<0.05
Description: Supernatants were collected and stored at −70° C.

pERK = assay: ERK phosphorylation in brain, Western blot; format: in vivo, mice; conditions: mouse brain after FST, 10 mg/kg orally once daily for 3 weeks, p<0.05
Description: as §1

CNCCC(Oc1ccc(C(F)(F)F)cc1)c1ccccc1 (centres unmarked) [fluoxetine, Fluoxetine]
Mean immobility time after the 3-week treatment period (ICR mice; 10 mg/kg orally once daily for 3 weeks, untreated control 199.3±11.8 s, p<0.05): 60.4 ± 14.3 s | Mean baseline immobility time (ICR mice; baseline (0 day), before treatment): 94.2 ± 23.9 s | BDNF level (BDNF): significantly increased BDNF levels | DA level in brain (DA): significantly higher than in the untreated control group | pERK level (pERK): significantly elevated pERK levels
